Measurements from PubChem BioAssay (NCI).
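48-hour exposure; five concentrations; linearly interpolated endpoints. GI50 marks 50% less growth. At the TGI there is no net growth.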 Where a SMILES comes first, the peptide text is derived from it. [ ]: non-standard residue; d: D form. ξ: configuration not given here. Pentanoyl(2-O,4-OH,5-Cl) = O=C(O)C(O)CC(O)CCl; Ile(3ξ) = CCC(C)[C@H](N)C(=O)O; NMeV = CN[C@H](C(=O)O)C(C)C; NMeA = CN[C@@H](C)C(=O)O; βAla = NCCC(=O)O

Columns and labels:
Test in all cases: NCI anticancer screen, dose series, 48 h
[1] = system: NCI-H23 lung
[2] = system: LOX IMVI melanoma
[3] = system: HT29 colon
[4] = system: MDA-MB-435
[5] = system: SK-OV-3 ovarian
[6] = system: RXF 393 renal
[7] = system: CAKI-1 renal
[8] = system: SN12C renal
[9] = system: NCI-H226 lung
[10] = system: UACC-257 melanoma

## O=c1[nH]c(=O)n(Cc2ccc(C34CC5CC(CC(C5)C3)C4)c(O)c2)cc1F
[1]
  GI50: 12.5 µM
  TGI: 27.2 µM
[2]
  GI50: 13.4 µM
  TGI: 27.2 µM
[3]
  GI50: 14.2 µM
  TGI: 37.2 µM
[4]
  GI50: 3.67 µM
  TGI: 15.4 µM
[5]
  GI50: 21 µM
  TGI: 55.7 µM
[6]
  GI50: 5.28 µM
  TGI: 18.3 µM
[7]
  GI50: 17.7 µM
  TGI: 37.5 µM
[8]
  GI50: 13.5 µM
  TGI: 26.8 µM
[9]
  GI50: 16.7 µM
  TGI: 32.6 µM

## CCN(CC)C(=O)c1cccc2c(OC)ccc(OC)c12
[1]
  TGI: > 100 µM
[2]
  TGI: > 100 µM
[3]
  TGI: > 100 µM
[5]
  TGI: > 100 µM
[6]
  TGI: > 100 µM
[7]
  TGI: > 100 µM
[8]
  TGI: > 100 µM
[9]
  TGI: > 100 µM
[10]
  TGI: > 100 µM

## CS(=O)(=O)N(CCC#N)c1ccc(/C=C2\N=C(c3ccccc3Cl)OC2=O)cc1
[1]
  TGI: > 100 µM
[2]
  TGI: > 100 µM
[3]
  TGI: > 100 µM
[5]
  TGI: > 100 µM
[6]
  TGI: > 100 µM
[7]
  TGI: > 100 µM
[8]
  TGI: > 100 µM
[9]
  TGI: > 100 µM
[10]
  TGI: > 100 µM

## O=c1c(-c2cccc3ccccc23)c(-c2cccc3ccccc23)c1=O
[1]
  TGI: 9.27 µM
[2]
  TGI: 27.3 µM
[3]
  TGI: 3.03 µM
[5]
  TGI: 26.1 µM
[6]
  TGI: 45.7 µM
[7]
  TGI: > 100 µM
[8]
  TGI: > 100 µM
[9]
  TGI: 6.51 µM
[10]
  TGI: > 39.6 µM

## CC1COS(=O)N1c1ccccc1 (configuration not stated)
[1]
  TGI: > 100 µM
[2]
  TGI: > 100 µM
[3]
  TGI: > 100 µM
[5]
  TGI: > 100 µM
[6]
  TGI: > 100 µM
[9]
  TGI: > 100 µM
[10]
  TGI: > 100 µM

## CCC(C)[C@@H]1NC(=O)[C@@H]2CCCN2C(=O)C(CC(O)CCl)OC(=O)CCNC(=O)[C@H](C)N(C)C(=O)[C@H](C(C)C)N(C)C1=O (some centres not stated) (cyclo([Ile(3ξ)][NMeV][NMeA][βAla][Pentanoyl(2-O,4-OH,5-Cl)]P))
[1]
  TGI: > 100 µM
[3]
  TGI: > 100 µM
[4]
  TGI: > 100 µM
[5]
  TGI: > 100 µM
[6]
  TGI: > 100 µM
[7]
  TGI: > 100 µM
[8]
  TGI: > 100 µM
[9]
  TGI: > 100 µM
[10]
  TGI: > 86 µM

## COc1ccc(C(O)C(c2ccc(OCc3ccccc3)cc2)c2ccc(OCc3ccccc3)cc2)cc1 (configuration not stated)
[1]
  TGI: > 100 µM
[3]
  TGI: > 100 µM
[5]
  TGI: > 100 µM
[6]
  TGI: > 100 µM
[7]
  TGI: > 100 µM
[8]
  TGI: > 100 µM
[9]
  TGI: > 100 µM

## CC(C)(Sc1cc(C(C)(C)C)c(O)c(C(C)(C)C)c1)Sc1cc(C(C)(C)C)c(O)c(C(C)(C)C)c1
[1]
  TGI: > 100 µM
[2]
  TGI: > 100 µM
[3]
  TGI: > 100 µM
[4]
  TGI: > 100 µM
[5]
  TGI: > 100 µM
[6]
  TGI: > 100 µM
[7]
  TGI: > 100 µM
[8]
  TGI: > 100 µM
[10]
  TGI: > 100 µM

## CCOP(=O)(OCC)C(C(=O)OC)C(=O)C(=O)Nc1cccc([N+](=O)[O-])c1 (configuration not stated)
[1]
  TGI: > 100 µM
[2]
  TGI: > 100 µM
[3]
  TGI: > 100 µM
[5]
  TGI: > 100 µM
[6]
  TGI: > 100 µM
[7]
  TGI: > 100 µM
[8]
  TGI: > 100 µM
[9]
  TGI: > 100 µM
[10]
  TGI: > 100 µM

## O=C(O)C1CCCN1 (configuration not stated)
[1]
  TGI: > 100 µM
[2]
  TGI: > 100 µM
[3]
  TGI: > 100 µM
[4]
  TGI: > 100 µM
[5]
  TGI: > 100 µM
[6]
  TGI: > 100 µM
[8]
  TGI: > 100 µM
[9]
  TGI: > 100 µM
[10]
  TGI: > 100 µM

## Clc1ccc2c(NCCCCNc3nc(N4CCOCC4)nc4ccccc34)ccnc2c1
[1]
  GI50: 5.68 µM
  TGI: 23.2 µM
[2]
  GI50: 1.73 µM
  TGI: 3.25 µM
[3]
  GI50: 2.61 µM
  TGI: 7.14 µM
[4]
  GI50: 2.4 µM
  TGI: 6.18 µM
[5]
  GI50: 3.03 µM
  TGI: 9.97 µM
[6]
  GI50: 1.65 µM
  TGI: 3.73 µM
[8]
  GI50: 2.03 µM
  TGI: 4.31 µM
[9]
  GI50: 1.72 µM
  TGI: 3.68 µM
[10]
  GI50: 15.2 µM
  TGI: 29.9 µM

## O=c1oc2ccccc2cc1P(=O)(O)O
[1]
  TGI: > 100 µM
[2]
  TGI: > 100 µM
[3]
  TGI: > 100 µM
[4]
  TGI: > 100 µM
[6]
  TGI: > 100 µM
[7]
  TGI: > 100 µM
[8]
  TGI: > 100 µM
[9]
  TGI: > 100 µM
[10]
  TGI: > 100 µM

## O=NN(CC1(O)OCC(O)C(O)C1O)C(Cc1c[nH]c2ccccc12)C(=O)O (configuration not stated)
[1]
  TGI: > 100 µM
[2]
  TGI: > 100 µM
[3]
  TGI: > 100 µM
[5]
  TGI: > 100 µM
[6]
  TGI: > 100 µM
[10]
  TGI: > 100 µM

## CN(C)C(=C1C(Br)=C(Br)C(Br)=C1Br)N(C)C
[1]
  TGI: > 100 µM
[2]
  TGI: 55.6 µM
[3]
  TGI: > 100 µM
[5]
  TGI: > 100 µM
[6]
  TGI: > 100 µM
[7]
  TGI: > 100 µM
[8]
  TGI: > 100 µM
[10]
  TGI: > 100 µM

## O=C1C2C3SC(c4cc5ccccc5cc43)C2C(=O)N1c1ccccc1 (configuration not stated)
[1]
  TGI: > 100 µM
[2]
  TGI: > 100 µM
[3]
  TGI: > 100 µM
[5]
  TGI: > 100 µM
[6]
  TGI: 94.3 µM
[7]
  TGI: > 100 µM
[8]
  TGI: > 100 µM
[9]
  TGI: > 100 µM
[10]
  TGI: > 100 µM

## O=C(O)c1ccccc1NS(=O)(=O)c1ccc(Cl)cc1
[1]
  TGI: > 100 µM
[2]
  TGI: > 100 µM
[3]
  TGI: > 100 µM
[5]
  TGI: > 100 µM
[6]
  TGI: > 100 µM
[7]
  TGI: > 100 µM
[8]
  TGI: > 100 µM
[9]
  TGI: > 100 µM
[10]
  TGI: > 100 µM

## CN(N=O)C(=O)NC(CCCCNC(=O)OCc1ccccc1)C(=O)OCc1ccccc1 (configuration not stated)
[1]
  TGI: 51.3 µM
[2]
  TGI: 37.1 µM
[3]
  TGI: > 100 µM
[5]
  TGI: > 100 µM
[6]
  TGI: 61.8 µM
[7]
  TGI: 52.8 µM
[8]
  TGI: 31.9 µM
[9]
  TGI: > 100 µM
[10]
  TGI: 33.5 µM

## CN(c1ccccc1)c1nc(=[N+](C)C)ss1
[1]
  TGI: > 100 µM
[3]
  TGI: > 100 µM
[5]
  TGI: > 100 µM
[6]
  TGI: > 100 µM
[7]
  TGI: > 100 µM
[8]
  TGI: > 100 µM
[9]
  TGI: > 100 µM
[10]
  TGI: > 100 µM

## CCC(=O)N1C(=S)SC[C@H]1C(=O)OC
[1]
  TGI: > 100 µM
[2]
  TGI: > 100 µM
[3]
  TGI: > 100 µM
[5]
  TGI: > 100 µM
[6]
  TGI: > 100 µM
[7]
  TGI: > 100 µM
[8]
  TGI: > 100 µM
[9]
  TGI: > 100 µM
[10]
  TGI: > 100 µM

## O=C(c1ccccc1)[C@H]1Nc2ccc(Cl)cc2[C@H]2c3ccccc3O[C@H]21
[1]
  TGI: 28.1 µM
[2]
  TGI: 37.2 µM
[3]
  TGI: 26.1 µM
[6]
  TGI: 22.4 µM
[7]
  TGI: 29.1 µM
[8]
  TGI: 29.1 µM
[10]
  TGI: 8.48 µM

## O=C1CN=C(c2ccccc2)c2ccncc2N1
[1]
  TGI: > 100 µM
[2]
  TGI: > 100 µM
[3]
  TGI: > 100 µM
[5]
  TGI: > 100 µM
[6]
  TGI: > 100 µM
[7]
  TGI: > 100 µM
[8]
  TGI: > 100 µM
[9]
  TGI: > 100 µM
[10]
  TGI: 72.5 µM

## O=c1c2ccccc2c(=O)n2n1-c1cccc(c1)CSSCc1cccc-2c1
[1]
  GI50: > 100 µM
  TGI: > 100 µM
[2]
  TGI: > 100 µM
[5]
  TGI: > 100 µM
[6]
  TGI: > 100 µM
[7]
  GI50: > 100 µM
  TGI: > 100 µM
[8]
  GI50: > 100 µM
  TGI: > 100 µM
[9]
  GI50: > 100 µM
  TGI: > 100 µM
